Source: US11033539B2, “Compounds of formulas (VII), (VIII), (IX), (XI), (XII), (XIII), and (XIV) as muscarinic receptor 4(M4) antagonists for treating neurological diseases” (Neurocrine Biosciences, Inc., priority 2015, dated 2021)
pKi: −log10 of the molar value.

Target: human M4 receptor (Homo sapiens (Human), UniProt P08173)
Test: Radioligand (tritiated N-methylscopolamine) binding assay, M4
Conditions: Ki against the M4 receptor; membranes from CHO cells expressing human M4; tritiated N-methylscopolamine 1.5 nM; read-out: Ki
Summary of the method: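 Membranes came from recombinant CHO cells expressing human muscarinic subtypes and were incubated with compound and [3H]NMS (1.5 nM) in HEPES/NaCl/MgCl2/EDTA buffer, pH 7.4, at 37° C for 90 min. Twelve-point dose-response (printed 10–[…]). Filter-bound radioactivity was counted and Ki values derived.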

Chain of human M4 receptor (P08173 whole entry): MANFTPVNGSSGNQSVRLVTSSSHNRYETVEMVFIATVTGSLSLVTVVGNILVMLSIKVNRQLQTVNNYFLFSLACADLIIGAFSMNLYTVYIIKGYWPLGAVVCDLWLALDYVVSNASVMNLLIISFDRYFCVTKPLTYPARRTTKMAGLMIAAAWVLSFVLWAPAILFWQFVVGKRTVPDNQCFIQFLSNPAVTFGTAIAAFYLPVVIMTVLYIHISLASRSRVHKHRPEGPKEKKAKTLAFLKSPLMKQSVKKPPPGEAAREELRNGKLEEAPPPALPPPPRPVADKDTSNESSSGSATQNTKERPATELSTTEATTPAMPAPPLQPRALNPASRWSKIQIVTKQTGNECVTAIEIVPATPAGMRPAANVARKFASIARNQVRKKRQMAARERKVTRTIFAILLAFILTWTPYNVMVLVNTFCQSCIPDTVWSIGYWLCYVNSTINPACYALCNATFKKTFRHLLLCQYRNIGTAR

| SMILES | pKi |
| --- | --- |
| N#Cc1cc(C(F)(F)F)ccc1N1CCN(C(=O)NCCC2CCN(Cc3ccccc3)CC2)CC1 [8-12, N-[2-(1-benzylpiperidin-4-yl)ethyl]-4-[2-cyano-4-(trifluoromethyl)phenyl]piperazine-1-carboxamide] | 7.00 to 8.00 |
| O=C(NCCC1CCN(Cc2ccccc2)CC1)N1CCN(c2ccc(Cl)cc2)CC1 [8-13, N-[2-(1-benzylpiperidin-4-yl)ethyl]-4-(4-chlorophenyl)piperazine-1-carboxamide] | 7.00 to 8.00 |
| O=C(NCCC1CCN(Cc2ccccc2)CC1)N1CCC(c2nc3ccccc3s2)CC1 [8-14, 4-(1,3-benzothiazol-2-yl)-N-[2-(1-benzylpiperidin-4-yl)ethyl]piperidine-1-carboxamide] | 7.00 to 8.00 |
| O=C(NCCC1CCN(Cc2ccccc2)CC1)N1CCN(c2ncc(C(F)(F)F)cc2Cl)CC1 [8-15, N-[2-(1-benzylpiperidin-4-yl)ethyl]-4-[3-chloro-5-(trifluoromethyl)pyridin-2-yl]piperazine-1-carboxamide] | 7.00 to 8.00 |
| CN(C(=O)NCCC1CCN(Cc2ccccc2)CC1)C1CCN(c2ncc(C(F)(F)F)cc2Cl)C1 (stereo not shown) [8-16, 1-[2-(1-benzylpiperidin-4-yl)ethyl]-3-{1-[3-chloro-5-(trifluoromethyl)pyridin-2-yl]pyrrolidin-3-yl}-3-methylurea] | 7.00 to 8.00 |
| O=C(NCCC1CCN(Cc2ccccc2)CC1)N1CCN(c2cccc(C(F)(F)F)c2)CC1 [8-17, N-[2-(1-benzylpiperidin-4-yl)ethyl]-4-[3-(trifluoromethyl)phenyl]piperazine-1-carboxamide] | 7.00 to 8.00 |
| N#Cc1cc(F)cc(N2CCN(C(=O)NCCC3CCN(Cc4ccccc4)CC3)CC2)c1 [8-18, N-[2-(1-benzylpiperidin-4-yl)ethyl]-4-(3-cyano-5-fluorophenyl)piperazine-1-carboxamide] | 7.00 to 8.00 |
| O=C(NCCC1CCN(Cc2ccccc2)CC1)N1CCC(O)(c2cccc(C(F)(F)F)c2)CC1 [8-19, N-[2-(1-benzylpiperidin-4-yl)ethyl]-4-hydroxy-4-[3-(trifluoromethyl)phenyl]piperidine-1-carboxamide] | 7.00 to 8.00 |
| O=C(NCCC1CCN(Cc2ccccc2)CC1)N1CCC(c2ccc(F)cc2)CC1 [8-20, N-[2-(1-benzylpiperidin-4-yl)ethyl]-4-(4-fluorophenyl)piperidine-1-carboxamide] | 6.00 to 7.00 |
| CN(C(=O)NCCC1CCN(Cc2ccccc2)CC1)C1CCN(c2ccc(C(F)(F)F)cc2)C1 (stereo not shown) [8-21, 1-[2-(1-benzylpiperidin-4-yl)ethyl]-3-methyl-3-{1-[4-(trifluoromethyl)phenyl]pyrrolidin-3-yl}urea] | 6.00 to 7.00 |
| N#Cc1cc(N2CCN(C(=O)NCCC3CCN(Cc4ccccc4)CC3)CC2)ccc1F [8-22, N-[2-(1-benzylpiperidin-4-yl)ethyl]-4-(3-cyano-4-fluorophenyl)piperazine-1-carboxamide] | 6.00 to 7.00 |
| O=C(NCCC1CCN(Cc2ccccc2)CC1)N1CCC(O)(c2ccc(Cl)cc2)CC1 [8-23, N-[2-(1-benzylpiperidin-4-yl)ethyl]-4-(4-chlorophenyl)-4-hydroxypiperidine-1-carboxamide] | 6.00 to 7.00 |
| COc1ccc(C2CCN(C(=O)NCCC3CCN(Cc4ccccc4)CC3)CC2)cc1 [8-24, N-[2-(1-benzylpiperidin-4-yl)ethyl]-4-(4-methoxyphenyl)piperidine-1-carboxamide] | 6.00 to 7.00 |
| N#Cc1cccc(N2CCN(C(=O)NCCC3CCN(Cc4ccccc4)CC3)CC2)c1 [8-25, N-[2-(1-benzylpiperidin-4-yl)ethyl]-4-(3-cyanophenyl)piperazine-1-carboxamide] | 6.00 to 7.00 |
| O=C(NCCC1CCN(Cc2ccccc2)CC1)N1CCC(c2cccc(F)c2)CC1 [8-26, N-[2-(1-benzylpiperidin-4-yl)ethyl]-4-(3-fluorophenyl)piperidine-1-carboxamide] | 6.00 to 7.00 |
| N#Cc1ccc(N2CCN(C(=O)NCCC3CCN(Cc4ccccc4)CC3)CC2)cc1 [8-27, N-[2-(1-benzylpiperidin-4-yl)ethyl]-4-(4-cyanophenyl)piperazine-1-carboxamide] | 6.00 to 7.00 |
